The source of these data is ChEMBL document CHEMBL1144232, “Tricyclic azepine derivatives as selective brain penetrant 5-HT6 receptor antagonists” (Bioorg Med Chem Lett, 2008).

Data set [1] addresses T1, 5-hydroxytryptamine receptor 6 (Homo sapiens, UniProt P50406). Kind of data set: Antagonist activity at 5HT6 receptor expressed in HeLa cells assessed as 5HT-induced cAMP accumulation by chemiluminescence assay. The data set is classed as functional, cell-based. In general terms: Cyclic AMP is a second messenger, typically raised through Gs and lowered through Gi signalling.

For data set [2], the target named is 5-hydroxytryptamine receptor 2B (Homo sapiens, UniProt P41595). Nature of the data set: Antagonist activity at 5HT2B receptor. The data set is classed as functional.
Chain of 5-hydroxytryptamine receptor 2B (P41595 whole entry): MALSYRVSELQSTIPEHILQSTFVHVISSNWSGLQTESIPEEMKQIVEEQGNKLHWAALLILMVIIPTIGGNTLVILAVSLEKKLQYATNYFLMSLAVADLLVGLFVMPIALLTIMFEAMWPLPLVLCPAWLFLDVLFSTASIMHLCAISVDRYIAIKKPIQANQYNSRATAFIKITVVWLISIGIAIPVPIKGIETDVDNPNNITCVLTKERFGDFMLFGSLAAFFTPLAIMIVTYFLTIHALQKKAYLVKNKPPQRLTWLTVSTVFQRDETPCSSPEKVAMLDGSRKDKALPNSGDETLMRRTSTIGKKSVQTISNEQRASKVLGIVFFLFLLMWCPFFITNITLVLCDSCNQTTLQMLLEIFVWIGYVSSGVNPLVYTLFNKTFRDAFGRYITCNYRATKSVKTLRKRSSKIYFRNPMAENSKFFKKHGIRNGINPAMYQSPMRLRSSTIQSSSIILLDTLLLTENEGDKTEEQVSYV
The test system of data set [3] is Liver microsomes. Kind of data set: Metabolic stability in rat liver microsomes assessed as intrinsic clearance at […] upto 30 mins. Type of data set: ADME, Microsome. Conditions: 0.5 h.
The target in data set [4] is T2, Cytochrome P450 3A4 (Homo sapiens, UniProt P08684). Kind of data set: Inhibition of human CYP3A4 by microtiter plate assays using PPR substrate.
T2 sequence (P08684 whole entry): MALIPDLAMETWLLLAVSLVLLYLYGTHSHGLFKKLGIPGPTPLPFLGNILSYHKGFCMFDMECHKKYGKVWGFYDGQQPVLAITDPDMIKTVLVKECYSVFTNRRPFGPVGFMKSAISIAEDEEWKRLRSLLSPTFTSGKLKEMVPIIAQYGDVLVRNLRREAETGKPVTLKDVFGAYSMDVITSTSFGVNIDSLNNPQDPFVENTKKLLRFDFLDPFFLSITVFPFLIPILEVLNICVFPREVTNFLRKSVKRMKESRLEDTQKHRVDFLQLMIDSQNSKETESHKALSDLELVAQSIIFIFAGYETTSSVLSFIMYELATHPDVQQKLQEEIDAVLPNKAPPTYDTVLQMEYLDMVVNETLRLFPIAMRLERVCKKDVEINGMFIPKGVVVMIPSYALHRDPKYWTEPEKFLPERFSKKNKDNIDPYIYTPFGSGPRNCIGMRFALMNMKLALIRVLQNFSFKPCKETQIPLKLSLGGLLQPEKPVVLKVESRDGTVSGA
Data set [5] has as its target T2, Cytochrome P450 3A4. Kind of data set: Inhibition of human CYP3A4 by microtiter plate assays using N-N,diethyl-formamide as substrate.
Data set [6] deals with 5-hydroxytryptamine receptor 2A (Homo sapiens, UniProt P28223). Kind of data set: Antagonist activity at 5HT2A receptor. Type of data set: functional.
Chain of 5-hydroxytryptamine receptor 2A (P28223 whole entry): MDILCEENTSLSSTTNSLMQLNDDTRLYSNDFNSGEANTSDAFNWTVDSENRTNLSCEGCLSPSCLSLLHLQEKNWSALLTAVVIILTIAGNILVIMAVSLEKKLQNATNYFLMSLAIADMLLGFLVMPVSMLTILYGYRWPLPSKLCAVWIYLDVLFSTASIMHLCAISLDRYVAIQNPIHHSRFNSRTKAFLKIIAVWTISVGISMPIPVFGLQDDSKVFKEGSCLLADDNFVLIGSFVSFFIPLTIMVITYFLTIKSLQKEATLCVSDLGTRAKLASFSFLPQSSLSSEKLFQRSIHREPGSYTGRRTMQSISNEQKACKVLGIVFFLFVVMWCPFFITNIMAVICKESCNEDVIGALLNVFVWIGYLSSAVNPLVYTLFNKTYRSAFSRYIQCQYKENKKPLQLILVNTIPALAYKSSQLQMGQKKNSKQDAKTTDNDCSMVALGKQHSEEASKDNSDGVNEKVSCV
For data set [7], the target named is T3, 5-hydroxytryptamine receptor 2C (Homo sapiens, UniProt P28335).
T3 sequence (P28335 whole entry): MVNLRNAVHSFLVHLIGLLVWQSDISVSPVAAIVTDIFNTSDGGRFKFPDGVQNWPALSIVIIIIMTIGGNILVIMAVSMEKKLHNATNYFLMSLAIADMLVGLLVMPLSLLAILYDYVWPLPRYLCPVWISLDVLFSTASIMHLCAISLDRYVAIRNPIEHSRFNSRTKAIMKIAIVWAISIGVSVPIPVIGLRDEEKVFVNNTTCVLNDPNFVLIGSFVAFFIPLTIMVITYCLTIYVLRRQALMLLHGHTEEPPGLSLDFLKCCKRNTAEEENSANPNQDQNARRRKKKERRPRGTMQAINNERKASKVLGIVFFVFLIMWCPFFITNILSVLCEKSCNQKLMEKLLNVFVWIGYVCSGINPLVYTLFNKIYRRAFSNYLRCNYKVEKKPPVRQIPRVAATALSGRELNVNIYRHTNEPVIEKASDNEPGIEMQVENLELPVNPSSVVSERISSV
Nature of the data set: Antagonist activity at 5HT2C receptor. Type of data set: functional.

The target of data set [8] is 5-hydroxytryptamine receptor 6 (Rattus norvegicus) (UniProt P31388). Nature of the data set: Ex vivo displacement of [125I]258585 from 5HT6 receptor in po dosed rat striatum. The data set is classed as organism-based. For orientation: Displacement assays read how much labelled ligand stays bound in the presence of the test substance.
Chain of 5-hydroxytryptamine receptor 6 (Rattus norvegicus) (P31388 whole entry): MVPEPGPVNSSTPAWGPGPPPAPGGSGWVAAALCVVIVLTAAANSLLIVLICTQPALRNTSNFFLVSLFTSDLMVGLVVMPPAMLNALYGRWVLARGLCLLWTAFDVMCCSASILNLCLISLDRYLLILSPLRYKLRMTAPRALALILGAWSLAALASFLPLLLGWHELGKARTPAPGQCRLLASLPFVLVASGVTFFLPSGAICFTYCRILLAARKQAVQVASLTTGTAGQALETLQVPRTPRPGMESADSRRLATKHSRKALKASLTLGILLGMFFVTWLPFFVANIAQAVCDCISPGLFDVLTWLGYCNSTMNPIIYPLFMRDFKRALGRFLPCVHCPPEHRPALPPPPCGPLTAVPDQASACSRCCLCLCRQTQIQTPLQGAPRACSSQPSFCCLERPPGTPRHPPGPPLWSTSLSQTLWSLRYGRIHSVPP
The target of data set [9] is T1, 5-hydroxytryptamine receptor 6. Nature of the data set: Antagonist activity at 5HT6 receptor. Type of data set: functional.
The nature of data set [10]: Ratio of drug level in brain to blood in orally dosed rat after 4 hrs. The note with it: brain and blood, po.
Data set [11] has as its system Blood. Nature of the data set: Drug level in rat blood at 1 mg/kg, po. The data set is classed as ADME, organism-based. Also on record: dose 1 mg/kg, route oral. The note with it: in vivo, read-out: Drug uptake.

SMILES strings stand for the structures. Bounds are passed on as bounds.

T1 sequence (P50406 whole entry): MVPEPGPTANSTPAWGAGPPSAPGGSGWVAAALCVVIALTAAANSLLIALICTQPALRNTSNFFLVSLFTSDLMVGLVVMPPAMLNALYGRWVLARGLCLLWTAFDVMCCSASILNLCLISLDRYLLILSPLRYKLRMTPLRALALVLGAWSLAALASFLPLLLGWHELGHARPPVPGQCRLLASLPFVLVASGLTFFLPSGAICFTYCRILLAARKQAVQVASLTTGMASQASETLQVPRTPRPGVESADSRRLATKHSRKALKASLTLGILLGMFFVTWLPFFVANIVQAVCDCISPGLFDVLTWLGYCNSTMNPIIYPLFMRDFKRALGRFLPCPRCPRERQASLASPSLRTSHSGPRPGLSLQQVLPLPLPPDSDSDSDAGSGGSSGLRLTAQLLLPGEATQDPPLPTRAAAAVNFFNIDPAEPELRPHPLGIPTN

One may read the Ki as the equilibrium dissociation constant of an inhibitor or competing ligand from its target. As usually defined, the IC50 is the concentration needed to halve the response being measured. Read a high IC50 as weaker potency in that assay. One may read the ED50 as the dose that gives a 50% effect, or the effect in half of the subjects. Low values mean greater potency, high ones weaker potency. Turning to `O=S(=O)(c1ccccc1)n1cc(Cl)c2cc3c(cc21)CCNCC3`, the inhibition constant (Ki) in [1] is 2.51 nM; in data set [2], 398 nM; in data set [6], 25.1 nM; in data set [7], 158 nM. For the same compound, the CL in data set [3] came out at 1.7 mL/min/g. The 50% inhibitory concentration (IC50) came out at 19000 nM in data set [4] and 12000 nM in [5]. In [8], the 50% effect level (ED50) was put at a dose of 4 mg/kg.
With `Cn1cc(S(=O)(=O)c2ccccc2)c2cc3c(cc21)CCNCC3`, the inhibitory constant (Ki) in data set [1] is 2 nM. The CL in [3] turned out to be 4.6 mL/min/g. The concentration for half-maximal inhibition (IC50) in data set [4] was determined as 13000 nM; in data set [5], 7800 nM.
For the compound `O=S(=O)(c1cccc(Cl)c1)n1cc(Cl)c2cc3c(cc21)CCNCC3`, the Ki in data set [1] was 3.98 nM. The CL in [3] was under 0.5 mL/min/g.
As to `CN1CCc2cc3ccn(S(=O)(=O)c4cccc(Cl)c4)c3cc2CC1`, the Ki in data set [1] is 1.26 nM. In addition, the CL in [3] is 22 mL/min/g. For the same compound, the half-inhibitory concentration (IC50) was determined as 71000 nM in data set [4] and 15000 nM in data set [5].
For `COc1cccc(S(=O)(=O)n2ccc3cc4c(cc32)CCNCC4)c1` the same measures were 2 nM, 2.7 mL/min/g, 27000 nM and 17000 nM.
Take `O=S(=O)(c1ccc(Cl)cc1)n1ccc2cc3c(cc21)CCNCC3`: the inhibition constant Ki in data set [1] was 7.94 nM.
What is called Kp is the ratio of the level in a tissue or fluid to that in plasma or blood. Compound `O=S(=O)(Nc1ccc2c(c1)CCNCC2)c1ccccc1` showed an inhibition constant (Ki) in data set [9] of 2 nM. For the same compound, the concentration ratio (Kp) at 4 h in data set [10] amounted to 0.5.
Consider `O=S(=O)(c1ccccn1)n1ccc2cc3c(cc21)CCNCC3`, for which the inhibition constant (Ki) in [1] is 100 nM. Also, in data set [3], the CL amounted to 3.6 mL/min/g. In addition, the half-inhibitory concentration (IC50) in data set [4] stood at 77000 nM; in [5], 39000 nM.
For the compound `O=S(=O)(c1ccccc1)N1CCCc2cc3c(cc21)CCNCC3`, the inhibitory constant (Ki) in data set [1] is 39.8 nM.
For `O=S(=O)(c1ccccc1Cl)n1ccc2cc3c(cc21)CCNCC3`, the inhibition constant Ki in [1] was 7.94 nM. Also, the CL in data set [3] is 4.5 mL/min/g. Moreover, the results for the IC50 in [4] and in [5] were 3200 nM and 2500 nM, respectively.
As to `O=S(=O)(c1ccsc1)n1ccc2cc3c(cc21)CCNCC3`, in data set [1], the inhibition constant (Ki) is 7.94 nM. Also, in [3], the CL worked out at 21 mL/min/g. Further, the IC50 in data set [4] came out at 22000 nM; in [5] it was 9700 nM.
With `O=S(=O)(c1ccccc1)n1ccc2cc3c(cc21)CCNCC3`, the Ki in [1] is 1.58 nM. In addition, the CL in data set [3] was 7.1 mL/min/g. The 50% inhibitory concentration (IC50) in data set [4] was 20000 nM; in data set [5], 12000 nM.
Turning to `O=S(=O)(c1cccc(Cl)c1)n1ccc2cc3c(cc21)CCNCC3`, in [10], the Kp at 4 h is 5. The Ki in data set [1] was 1.58 nM. For the same compound, in data set [3], the CL was 2.5 mL/min/g. The concentration for half-maximal inhibition (IC50) in data set [4] was 7000 nM; in data set [5], 3000 nM. Further, in data set [11], the concentration was 38 nM.
